Target: PIM1 (Homo sapiens (Human), UniProt P11309)
Test: biochemical
Type: biochemical
Details: 20 pM PIM1, 1 μM FAM-peptide, 10 μM ATP, 90 minutes at room temperature; read-out: PIM1 LC3K (KI)

Chain of PIM1 (P11309 whole entry): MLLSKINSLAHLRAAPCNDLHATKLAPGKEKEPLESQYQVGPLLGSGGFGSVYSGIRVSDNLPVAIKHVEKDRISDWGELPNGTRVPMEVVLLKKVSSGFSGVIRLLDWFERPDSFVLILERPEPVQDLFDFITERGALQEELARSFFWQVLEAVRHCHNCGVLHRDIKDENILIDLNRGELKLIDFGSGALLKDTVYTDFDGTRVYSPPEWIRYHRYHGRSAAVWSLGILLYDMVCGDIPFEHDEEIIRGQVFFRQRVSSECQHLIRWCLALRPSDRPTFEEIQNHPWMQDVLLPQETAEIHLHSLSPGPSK

SMILES | Ki
Cn1ncc(NC(=O)c2nc(-c3ccncc3F)sc2N)c1[C@@H]1CC[C@@H](N)[C@@H](F)CO1 [Example 182, 5-Amino-N-[5-[(2S,5R,6R)-5-amino-6-fluoro-oxepan-2-yl]-1-methyl-pyrazol-4-yl]-2-(3-fluoro-4-pyridyl)thiazole-4-carboxamide] | 0.051 nM
Cn1ncc(NC(=O)c2csc(-c3c(F)cccc3CO)n2)c1[C@@H]1CC[C@@H](N)[C@H](F)CO1 [Example 382, N-[5-[(2S,5R,6S)-5-amino-6-fluoro-oxepan-2-yl]-1-methyl-pyrazol-4-yl]-2-[2-fluoro-6-(hydroxymethyl)phenyl]thiazole-4-carboxamide] | 7.2 nM
Cn1ncc(NC(=O)c2nc(-c3c(F)cccc3F)sc2N)c1[C@H]1CC[C@H](N)C(F)(F)CO1 [Example 152] | 0.031 nM
Cn1ncc(NC(=O)c2nc(-c3c(F)cccc3F)sc2N)c1[C@H]1OC[C@@](C)(CO)CO1 [Example 166, 5-Amino-2-(2,6-difluorophenyl)-N-[5-[5-(hydroxymethyl)-5-methyl-1,3-dioxan-2-yl]-1-methyl-pyrazol-4-yl]thiazole-4-carboxamide] | 0.514 nM
Cn1ncc(NC(=O)c2nc(-c3ccccc3OC(F)(F)F)sc2N)c1[C@@H]1CC[C@@H](N)[C@H](F)CO1 [Example 157, 5-amino-N-(5-((2S,5R,6S)-5-amino-6-fluorooxepan-2-yl)-1-methyl-1H-pyrazol-4-yl)-2-(2-(trifluoromethoxy)phenyl)thiazole-4-carboxamide] | 0.965 nM
Cn1ncc(NC(=O)c2csc(-n3ncc4c3CCCC4)n2)c1[C@@H]1CC[C@@H](N)[C@H](F)CO1 [Example 389, N-(5-((2S,5R,6S)-5-amino-6-fluorooxepan-2-yl)-1-methyl-1H-pyrazol-4-yl)-2-(4,5,6,7-tetrahydro-1H-indazol-1-yl)thiazole-4-carboxamide] | 0.02 nM
Cn1ncc(NC(=O)c2csc(-c3cnc4cccnc4c3)n2)c1[C@@H]1CC[C@@H](N)[C@H](F)CO1 [Example 399, N-[5-[(2S,5R,6S)-5-amino-6-fluoro-oxepan-2-yl]-1-methyl-pyrazol-4-yl]-2-(1,5-naphthyridin-3-yl)thiazole-4-carboxamide] | 0.21 nM
C[C@H]1O[C@@H](c2c(NC(=O)c3nc(-c4c(F)cccc4F)sc3N)cnn2C)CC(F)(F)[C@@]1(C)N (stereo in doubt) [Example 179, 5-Amino-N-[5-[5-amino-4,4-difluoro-5,6-dimethyl-tetrahydropyran-2-yl]-1-methyl-pyrazol-4-yl]-2-(2,6-difluorophenyl)thiazole-4-carboxamide] | 0.456 nM
CO[C@H]1CO[C@H](c2c(NC(=O)c3nc(-c4c(F)cccc4C(F)(F)F)sc3N)cnn2C)CC[C@H]1N [Example 279, 5-amino-N-(5-((2S,5R,6R)-5-amino-6-methoxyoxepan-2-yl)-1-methyl-1H-pyrazol-4-yl)-2-(2-fluoro-6-(trifluoromethyl)phenyl)thiazole-4-carboxamide] | 0.083 nM
CC1C(c2c(NC(=O)c3nc(-c4c(F)cccc4F)sc3N)cnn2C)OCC(C)(O)C1N (stereo not drawn) [Example 142, 5-amino-N-[5-(4-amino-5-hydroxy-3,5-dimethyl-tetrahydropyran-2-yl)-1-methyl-pyrazol-4-yl]-2-(2,6-difluorophenyl)thiazole-4-carboxamide] | 0.441 nM
Cn1ncc(NC(=O)c2nc(-c3cccc(C(F)(F)F)c3F)sc2N)c1[C@@H]1CC[C@@H](N)[C@@H](F)CO1 [Example 268, 5-amino-N-(5-((2S,5R,6R)-5-amino-6-fluorooxepan-2-yl)-1-methyl-1H-pyrazol-4-yl)-2-(2-fluoro-3-(trifluoromethyl)phenyl)thiazole-4-carboxamide] | 0.028 nM
Cn1ncc(NC(=O)c2nc(C3=CCCC3)sc2N)c1[C@@H]1CC[C@@H](N)[C@H](F)CO1 [Example 333, 5-amino-N-(5-((2S,5R,6S)-5-amino-6-fluorooxepan-2-yl)-1-methyl-1H-pyrazol-4-yl)-2-(cyclopent-1-en-1-yl)thiazole-4-carboxamide] | 0.03 nM
Cn1ncc(NC(=O)c2nc(-c3c(F)cccc3F)sc2N)c1[C@@H]1CC[C@@H](CN)O1 (stereo in doubt) [Example 155, 5-Amino-N-[5-[5-(aminomethyl)tetrahydrofuran-2-yl]-1-methyl-pyrazol-4-yl]-2-(2,6-difluorophenyl)thiazole-4-carboxamide] | 0.104 nM
Cc1cc(F)c(-c2nc(C(=O)Nc3cnn(C)c3[C@@H]3CC[C@@H](N)[C@H](F)CO3)cs2)c(F)c1 [Example 312, N-(5-((2S,5R,6S)-5-amino-6-fluorooxepan-2-yl)-1-methyl-1H-pyrazol-4-yl)-2-(2,6-difluoro-4-methylphenyl)thiazole-4-carboxamide] | 0.003 nM
Cn1ncc(NC(=O)c2ccc(F)c(-c3c(F)cc(C(CO)CO)cc3F)n2)c1[C@@H]1CC[C@@H](N)[C@H](F)CO1 [Example 214, N-(5-((2S,5R,6S)-5-amino-6-fluorooxepan-2-yl)-1-methyl-1H-pyrazol-4-yl)-6-(4-(1,3-dihydroxypropan-2-yl)-2,6-difluorophenyl)-5-fluoropicolinamide] | 0.075 nM
Cn1ncc(NC(=O)c2nc(-c3ccncc3F)sc2N)c1[C@@]12CC[C@@H](N)[C@@H](CC1)O2 (stereo in doubt) [Example 161, 5-Amino-N-[5-[2-amino-8-oxabicyclo[3.2.1]octan-5-yl]-1-methyl-pyrazol-4-yl]-2-(3-fluoro-4-pyridyl)thiazole-4-carboxamide] | 0.013 nM
Cn1ncc(NC(=O)c2csc(-c3c(F)cccc3Cl)n2)c1[C@@H]1CC[C@@H](N)[C@H](F)CO1 [Example 284, N-(5-((2S,5R,6S)-5-amino-6-fluorooxepan-2-yl)-1-methyl-1H-pyrazol-4-yl)-2-(2-chloro-6-fluorophenyl)thiazole-4-carboxamide] | 0.22 nM
Cn1ncc(NC(=O)c2csc(-n3cc4c(n3)CCCC4)n2)c1[C@@H]1CC[C@@H](N)[C@H](F)CO1 [Example 390, N-(5-((2S,5R,6S)-5-amino-6-fluorooxepan-2-yl)-1-methyl-1H-pyrazol-4-yl)-2-(4,5,6,7-tetrahydro-2H-indazol-2-yl)thiazole-4-carboxamide] | 0.267 nM
CO[C@H]1COC(c2c(NC(=O)c3nc(-c4c(F)cccc4F)sc3N)cnn2C)CC[C@@H]1N (stereo partly drawn) [Example 128, 5-amino-N-(5-((5S,6R)-5-amino-6-methoxyoxepan-2-yl)-1-methyl-1H-pyrazol-4-yl)-2-(2,6-difluorophenyl)thiazole-4-carboxamide] | 0.476 nM
Cn1ncc(NC(=O)c2nc(-c3c(F)cccc3F)sc2N)c1[C@@H]1CC[C@@H](N)C(F)(F)CO1 [Example 168, 5-Amino-N-[5-[(2S,5R)-5-amino-6,6-difluoro-oxepan-2-yl]-1-methyl-pyrazol-4-yl]-2-(2,6-difluorophenyl)thiazole-4-carboxamide] | 0.013 nM
Cn1ncc(NC(=O)c2csc(-c3cccc(OCc4ccccc4)c3)n2)c1[C@@H]1CC[C@@H](N)[C@H](F)CO1 [Example 401, N-[5-[(2S,5R,6S)-5-amino-6-fluoro-oxepan-2-yl]-1-methyl-pyrazol-4-yl]-2-(3-benzyloxyphenyl)thiazole-4-carboxamide] | 0.447 nM
